Data: article PMC3149649, “Evidence for a Two-Metal-Ion Mechanism in the Cytidyltransferase KdsB, an Enzyme Involved in Lipopolysaccharide Biosynthesis” (PLoS ONE, 2011)

Assays:
[1] = biological target: T1, AA-LCKS (LPS-specific CMP-Kdo synthetase, KdsB) (Aquifex aeolicus, UniProt O66914); assay: X-ray crystal structure, […] Å; format: binding; conditions: co-crystallised with 1 mM CTP; two Mg2+ (Mg-A, Mg-B) in active site; pH 7.5; 19°C
T1 construct: recombinant from plasmid pT7-kdsB in E. coli BL21-CodonPlus(DE3)-RIL; no tag mentioned; monomer 27 kDa, gel filtration 53 kDa, homodimer
T1 sequence (O66914 whole entry): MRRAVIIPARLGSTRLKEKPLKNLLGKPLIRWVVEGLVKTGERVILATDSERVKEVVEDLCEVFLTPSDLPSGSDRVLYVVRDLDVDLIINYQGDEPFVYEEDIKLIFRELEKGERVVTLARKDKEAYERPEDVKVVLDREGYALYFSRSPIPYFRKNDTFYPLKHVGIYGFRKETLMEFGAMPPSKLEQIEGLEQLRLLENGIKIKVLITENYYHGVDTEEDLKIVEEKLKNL

[2] = biological target: T1, AA-LCKS (LPS-specific CMP-Kdo synthetase, KdsB); assay: discontinuous Kdo activation assay, CTP replaced by UTP; format: biochemical; conditions: co-substrate Kdo; glycine-NaOH pH 9.0 or HEPES-NaOH pH 7.5; 80°C

Row | SMILES | X-ray crystal structure, 2.10 Å [1] | discontinuous Kdo activation assay, CTP replaced by UTP [2]
1 | Nc1ccn([C@@H]2O[C@H](COP(=O)(O)OP(=O)(O)OP(=O)(O)O)[C@@H](O)[C@H]2O)c(=O)n1 [CTP] | The CTP substrate is bound to the N-terminal domain in each molecule of AA-LCKS | 
2 | O=c1ccn([C@@H]2O[C@H](COP(=O)(O)OP(=O)(O)OP(=O)(O)O)[C@@H](O)[C@H]2O)c(=O)[nH]1 [UTP] |  | AA-LCKS was able to utilize UTP for Kdo activation but not ATP or GTP
